# What was measured:
# [1] = DRUGMATRIX: Phosphodiesterase PDE4 enzyme inhibition (substrate: [3H]cAMP + cAMP); details: u-937, Not Active = under 50% inhibition at 10 µM
# [2] = DRUGMATRIX: Tumor Necrosis Factor (TNF), Non-Selective radioligand binding (ligand: [125I] TNF-alpha); type: cell membranes, Membrane; details: u-937; Not Active = under 50% inhibition at 10 µM
# [3] = biological target: Kappa-type opioid receptor (Homo sapiens, UniProt P41145); assay: DRUGMATRIX: Opiate kappa (OP2, KOP) radioligand binding (ligand: [3H] Diprenorphine); type: cell membranes, HEK293, Membrane; details: hek293; Not Active = under 50% inhibition at 10 µM
# [4] = DRUGMATRIX: Purinergic P2X radioligand binding (ligand: [3H] alpha, beta-Methylene-ATP); type: cell membranes, Oryctolagus cuniculus, New Zealand albino, Urinary bladder, Membrane; details: Not Active = under 50% inhibition at 10 µM
# [5] = biological target: T1, Cytochrome P450 2A6 (Homo sapiens, UniProt P11509); details: bti-tn-5b1-4; further: in other assays of this panel Not Active means under 50% inhibition at 10 µM
# T1 sequence (P11509 whole entry): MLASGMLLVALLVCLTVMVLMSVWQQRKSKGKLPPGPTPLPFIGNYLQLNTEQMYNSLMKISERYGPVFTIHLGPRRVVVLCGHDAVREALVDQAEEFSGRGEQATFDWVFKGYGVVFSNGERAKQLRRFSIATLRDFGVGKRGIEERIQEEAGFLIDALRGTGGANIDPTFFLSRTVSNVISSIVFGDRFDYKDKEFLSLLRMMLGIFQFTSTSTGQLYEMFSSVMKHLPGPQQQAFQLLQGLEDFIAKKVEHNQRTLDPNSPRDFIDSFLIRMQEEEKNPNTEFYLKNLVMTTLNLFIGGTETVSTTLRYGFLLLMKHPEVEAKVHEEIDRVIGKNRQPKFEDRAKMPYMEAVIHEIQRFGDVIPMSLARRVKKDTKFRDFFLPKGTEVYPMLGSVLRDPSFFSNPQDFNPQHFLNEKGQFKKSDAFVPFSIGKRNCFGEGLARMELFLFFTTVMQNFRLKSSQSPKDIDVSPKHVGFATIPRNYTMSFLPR
# [6] = biological target: Adenosine receptor A2a (Homo sapiens, UniProt P29274); assay: DRUGMATRIX: Adenosine A2A radioligand binding (ligand: […]); type: cell membranes, HEK293, Membrane; details: hek293; Not Active = under 50% inhibition at 10 µM
# [7] = biological target: Nitric oxide synthase 1 (Rattus norvegicus, UniProt P29476); type: tissue-based, Cerebellum; further: in other assays of this panel Not Active means under 50% inhibition at 10 µM
# Sequence of Nitric oxide synthase 1 (P29476 whole entry): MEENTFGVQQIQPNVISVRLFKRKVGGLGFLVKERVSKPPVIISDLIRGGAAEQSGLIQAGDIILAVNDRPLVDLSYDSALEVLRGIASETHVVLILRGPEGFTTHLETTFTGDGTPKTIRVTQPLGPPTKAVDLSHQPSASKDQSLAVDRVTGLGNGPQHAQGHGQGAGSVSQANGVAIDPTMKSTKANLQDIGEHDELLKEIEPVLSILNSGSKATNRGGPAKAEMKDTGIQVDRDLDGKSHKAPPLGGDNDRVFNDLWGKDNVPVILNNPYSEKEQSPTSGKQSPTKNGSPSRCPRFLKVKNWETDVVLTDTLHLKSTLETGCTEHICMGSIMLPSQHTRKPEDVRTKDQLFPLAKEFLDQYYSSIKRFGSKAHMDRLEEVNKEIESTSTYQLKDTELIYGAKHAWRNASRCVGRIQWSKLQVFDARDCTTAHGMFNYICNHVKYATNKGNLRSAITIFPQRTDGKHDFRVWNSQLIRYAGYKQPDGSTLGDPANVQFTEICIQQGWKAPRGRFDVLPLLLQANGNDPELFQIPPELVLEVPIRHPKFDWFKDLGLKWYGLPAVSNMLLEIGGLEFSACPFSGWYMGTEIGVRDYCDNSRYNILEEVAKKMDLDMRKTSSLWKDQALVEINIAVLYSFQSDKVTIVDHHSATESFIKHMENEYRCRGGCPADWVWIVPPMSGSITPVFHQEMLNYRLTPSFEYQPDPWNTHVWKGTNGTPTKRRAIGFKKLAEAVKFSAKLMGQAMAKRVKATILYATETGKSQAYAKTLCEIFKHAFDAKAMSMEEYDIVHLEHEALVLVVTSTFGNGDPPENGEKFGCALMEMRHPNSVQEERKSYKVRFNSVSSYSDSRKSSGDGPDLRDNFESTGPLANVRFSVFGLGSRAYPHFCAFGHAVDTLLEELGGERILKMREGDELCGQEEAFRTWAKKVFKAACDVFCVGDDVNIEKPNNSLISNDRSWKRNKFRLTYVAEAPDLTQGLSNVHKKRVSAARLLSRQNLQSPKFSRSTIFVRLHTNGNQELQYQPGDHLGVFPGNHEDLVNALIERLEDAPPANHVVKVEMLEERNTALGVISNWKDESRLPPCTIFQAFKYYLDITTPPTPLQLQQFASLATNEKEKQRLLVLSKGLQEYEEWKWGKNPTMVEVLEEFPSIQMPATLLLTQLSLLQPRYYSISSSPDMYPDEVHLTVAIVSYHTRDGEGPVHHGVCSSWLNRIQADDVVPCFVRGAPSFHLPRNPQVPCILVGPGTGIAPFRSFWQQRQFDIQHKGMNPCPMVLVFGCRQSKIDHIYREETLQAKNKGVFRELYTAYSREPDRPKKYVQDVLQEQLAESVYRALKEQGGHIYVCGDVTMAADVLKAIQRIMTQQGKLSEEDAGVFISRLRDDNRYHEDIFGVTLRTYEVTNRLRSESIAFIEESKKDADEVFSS
# Sequence of Adenosine receptor A2a (P29274 whole entry): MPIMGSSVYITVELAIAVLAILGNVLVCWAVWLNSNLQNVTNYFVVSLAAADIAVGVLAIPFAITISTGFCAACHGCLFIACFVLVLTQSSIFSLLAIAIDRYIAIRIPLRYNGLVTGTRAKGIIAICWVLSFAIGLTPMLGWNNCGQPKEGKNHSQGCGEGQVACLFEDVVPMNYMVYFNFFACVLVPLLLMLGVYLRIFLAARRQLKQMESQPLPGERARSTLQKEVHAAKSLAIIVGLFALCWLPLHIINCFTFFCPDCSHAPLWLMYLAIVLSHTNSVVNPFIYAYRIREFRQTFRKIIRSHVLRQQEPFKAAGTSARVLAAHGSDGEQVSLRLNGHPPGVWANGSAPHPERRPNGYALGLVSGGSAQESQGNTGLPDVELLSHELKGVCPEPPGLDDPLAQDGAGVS
# Sequence of Kappa-type opioid receptor (P41145 whole entry): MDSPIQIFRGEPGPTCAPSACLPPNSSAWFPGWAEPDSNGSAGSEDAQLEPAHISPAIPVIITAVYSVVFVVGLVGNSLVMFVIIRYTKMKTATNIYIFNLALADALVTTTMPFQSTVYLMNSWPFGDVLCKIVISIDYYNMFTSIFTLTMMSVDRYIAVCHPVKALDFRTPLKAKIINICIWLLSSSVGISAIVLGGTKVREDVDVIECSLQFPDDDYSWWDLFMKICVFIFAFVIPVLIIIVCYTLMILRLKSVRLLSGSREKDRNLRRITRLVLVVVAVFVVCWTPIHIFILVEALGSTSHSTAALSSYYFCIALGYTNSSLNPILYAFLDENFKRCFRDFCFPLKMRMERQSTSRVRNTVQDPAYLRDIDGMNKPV
Molecule,IC50 [1],Ki [1],IC50 [2],Ki [2],IC50 [3],IC50 [4],Ki [4],IC50 [5],Ki [5],IC50 [6],IC50 [7],IC50 ([1]; read-out: IC50),Ki [6],Ki [7]
CC[C@H]1OC(=O)[C@H](C)[C@@H](O[C@H]2C[C@@](C)(OC)[C@@H](O)[C@H](C)O2)[C@H](C)[C@@H](O[C@@H]2O[C@H](C)C[C@H](N(C)C)[C@H]2O)[C@](C)(O)C[C@@H](C)CN(C)[C@H](C)[C@@H](O)[C@]1(C)O [AZITHROMYCIN],Not Active,Not Active,Not Active,Not Active,Not Active,Not Active,Not Active,Not Active,Not Active,Not Active,Not Active,,,
CC(C)C[C@H]1C(=O)N2CCC[C@H]2[C@]2(O)O[C@](NC(=O)[C@@H]3C=C4c5cccc6[nH]c(Br)c(c56)C[C@H]4N(C)C3)(C(C)C)C(=O)N12 [BROMOCRIPTINE],Not Active,Not Active,Not Active,Not Active,,Not Active,Not Active,Not Active,Not Active,Not Active,Not Active,,,
CCC[C@@H]1C[C@@H](C(=O)N[C@@H]([C@H]2O[C@H](SC)[C@H](O)[C@@H](O)[C@H]2O)[C@H](C)Cl)N(C)C1 [CLINDAMYCIN],Not Active,Not Active,Not Active,Not Active,Not Active,Not Active,Not Active,,,Not Active,Not Active,,,
Nc1nc(N)nc(NC2CC2)n1 [CYROMAZINE],Not Active,Not Active,Not Active,Not Active,,Not Active,Not Active,Not Active,Not Active,Not Active,Not Active,,,
CN1C[C@H](C(=O)N[C@]2(C)O[C@@]3(O)[C@@H]4CCCN4C(=O)[C@H](Cc4ccccc4)N3C2=O)C[C@@H]2c3cccc4[nH]cc(c34)C[C@H]21 [DIHYDROERGOTAMINE],Not Active,Not Active,Not Active,Not Active,,Not Active,Not Active,Not Active,Not Active,Not Active,Not Active,,,
Cc1cn[nH]c1 [FOMEPIZOLE],Not Active,Not Active,Not Active,Not Active,Not Active,Not Active,Not Active,,,Not Active,Not Active,,,
Cc1cnc(C(=O)NCCc2ccc(S(=O)(=O)NC(=O)NC3CCCCC3)cc2)cn1 [GLIPIZIDE],Not Active,Not Active,Not Active,Not Active,Not Active,Not Active,Not Active,,,Not Active,Not Active,,,
COc1ccccc1OCC(O)CO (stereo unspecified) [GUAIFENESIN],Not Active,Not Active,Not Active,Not Active,Not Active,Not Active,Not Active,,,Not Active,Not Active,,,
C/C=C\c1ccc(O)c(OC)c1 [ISOEUGENOL],Not Active,Not Active,Not Active,Not Active,Not Active,Not Active,Not Active,,,Not Active,Not Active,,,
COc1ccc(Cc2nccc3cc(OC)c(OC)cc23)cc1OC [PAPAVERINE],,,Not Active,Not Active,,Not Active,Not Active,Not Active,Not Active,Not Active,Not Active,817 nM,,
COBALT(II) ACETYLACETONATE,Not Active,Not Active,Not Active,Not Active,,Not Active,Not Active,Not Active,Not Active,Not Active,Not Active,,Not Active,Not Active
INSULIN HUMAN,Not Active,Not Active,Not Active,Not Active,,Not Active,Not Active,Not Active,Not Active,Not Active,Not Active,,Not Active,Not Active
POLYVINYL ALCOHOL,Not Active,Not Active,Not Active,Not Active,,Not Active,Not Active,Not Active,Not Active,Not Active,Not Active,,Not Active,Not Active

# From ChEMBL document CHEMBL1909046, “DrugMatrix in vitro pharmacology data”
